Results: EPA's ToxValDB 9.5

Assays:
Monkey = conditions: oral, Cynomolgus
Oryctolagus sp. = conditions: duration: 15 days, oral, F, New Zealand
[1] = chronic, duration: 26 weeks, M/F, Endocrine: Increased TSH and decreased total T3 + Hepatic: 47-55% increased absolute liver weight / 50-60% decreased serum cholesterol / …
[2] = reproduction developmental, Body Weight: 21% decreased mean maternal body weight gain on GDs 7-21 / no effect on food consumption

O=S(=O)([O-])C(F)(F)C(F)(F)C(F)(F)C(F)(F)C(F)(F)C(F)(F)C(F)(F)C(F)(F)F.[K+] [Potassium perfluorooctanesulfonate]
NOAEL (Monkey; chronic, duration: 26 weeks, F): 0.75 mg/kg-day
LOAEL (Monkey; [1]): 0.75 mg/kg-day
NOAEL (Monkey; [1]): 0.15 mg/kg-day
NOAEL (Monkey; chronic, duration: 26 weeks, M/F, Neurological: No histological alterations): 0.75 mg/kg-day
NOAEL (Monkey; chronic, duration: 26 weeks, M, Body Weight: 13.5% reduction in final body weight): 0.15 mg/kg-day
LOAEL (Monkey; chronic, duration: 26 weeks, M, Body Weight: 13.5% reduction in final body weight + Reproductive: Significant decrease in serum estradiol on days 62 (48%), 91 (42%), and …): 0.75 mg/kg-day
NOAEL (Monkey; chronic, duration: 315 days, M): 13.3 mg/kg-day
LOAEL (Monkey; chronic, duration: 315 days, M, Endocrine: Decreased serum T4 / values still within normal range + Hepatic: Decrease in HDL cholesterol / values still within normal range): 13.3 mg/kg-day
NOAEL (Monkey; short-term, duration: 4 weeks, M/F, Immunotoxicological: No histological alteration + Reproductive: No histological alterations): 2 mg/kg-day
NOAEL (Oryctolagus sp.; developmental, Developmental: Decreased fetal body weight / 10% at […] and 24% at 3.75 mg/kg/day / 10/22 does aborted between GD 22 and 28 at 3.75 mg/kg/…): 1 mg/kg-day
LOAEL (Oryctolagus sp.; [2]): 1 mg/kg-day
NOAEL (Oryctolagus sp.; [2]): 0.1 mg/kg-day
